The results in this text go back to US3931299A, “9β-Formyl prostaglandin derivatives” (American Home Products Corporation, priority 1974, dated 1976).

Each structure is given as a SMILES string.

Assay [1] can be described thus: hypotension in the anesthetized dog by the intravenous route. The assay is classed as in vivo. The protocol: In the use of the compounds of the invention to produce hypotensive effects in warm-blooded animals, administration by the injectable route is preferred, preferably the intravenous route.
Thus in the anesthetized dog by the intravenous route the dose to produce hypotension is from about 1 μg/kg. to about 200 μg/kg. and preferably from about 10 μg/kg. to about 100 μg/kg.
Using this procedure the following results were obtained.

In assay [2] the test system is bronchoconstricting effects of a standard dose of acetylcholine. Kind of assay: bronchodilation in the guinea pig by aerosol inhalation (method of Rosenthale et al.). The assay is classed as in vivo. From the text: In using the compounds of the invention to produce bronchodilating effects in warm-blooded animals, they may be administered in a variety of dosage forms: oral, injectable, and aerosol inhalation. Aerosol inhalation is a preferred method because of its rapid onset of action, great potency, and specificity of action. The particular dosage to obtain the bronchodilating effect will vary with the particular compound employed, the particular animal involved, and the degree of bronchodilation desired. In the guinea pig, by aerosol inhalation, the dose to produce bronchodilation is from about 0.15 micrograms to about 100 micrograms, and preferably from about 0.15 to about 50 micrograms. The bronchodilation produced upon aerosol inhalation can be observed by the method of Rosenthale et al., J. Pharmacol. Exp. Ther., 178, 541 (1971).
Using this procedure, the following results were obtained.

Consider `CCCCC[C@H](O)/C=C/[C@H]1CC[C@@H](CO)[C@@H]1C/C=C\CCCC(=O)O` [7-[5β-Hydroxymethyl-2β-((3S)-3-Hydroxy-Trans-1-Octenyl)-1α-Cyclopentyl]-Cis-5-Heptenoic Acid], for which, in assay [1] (dose 100 μg/kg.), the Δb.p. is -27 mm. Hg.
For `C=C1CC[C@H](/C=C/[C@@H](O)CCCCC)[C@H]1C/C=C\CCCC(=O)O` [7-[2β-((3S)-3-Hydroxy-Trans-1-Octenyl)-5-Methylene-1α-Cyclopentyl]-Cis-5-Heptenoic Acid], the “Percent inhibition of the bronchoconstricting effects of a standard dose of acetylcholine” value (“Percent inhibition” for short) in assay [2] (dose 1.5 μg) was determined as 46%.
With `CCCCC[C@H](O)/C=C/[C@H]1CC[C@@H](C=O)[C@@H]1CCCCCCC(=O)O` [5β-Formyl-2β-[(3S)-3-Hydroxy-Trans-1-Octenyl]-1α-Cyclopentane Heptanoic Acid], the “Percent inhibition” value in assay [2] (dose 0.15 μg) was determined as 36%. Also, the Δb.p. in assay [1] (dose 100 μg/kg.) was -27 mm. Hg.
Take `CCCCC[C@H](O)/C=C/[C@H]1CC[C@@H](C=O)[C@@H]1C/C=C\CCCC(=O)O` [7-[5β-Formyl-2β-((3S)-3-Hydroxy-Trans-1-Octenyl)-1α-Cyclopentyl]-Cis-5-Heptenoic Acid]: the “Percent inhibition” value in assay [2] (dose 1.5 μg) was 55%. In assay [1] (dose 10 μg/kg.), this molecule gave a Δb.p. of -17 mm. Hg.
Regarding `C=C1CC[C@H](/C=C/[C@@H](O)CCCCC)[C@H]1CCCCCCC(=O)O` [2β-[(3S)-3-Hydroxy-Trans-1-Octenyl]-5-Methylene-1α-Cyclopentaneheptanoic Acid], the Δb.p. in assay [1] (dose 100 μg/kg.) is -32 mm. Hg.
